These results are taken from patent US7910621B2, “Small molecule antagonists of XIAP family proteins” (The Regents of the University of Michigan, priority 2004, dated 2011).

Ends that are not written are not given here. Peptide text beside a SMILES is read from it. * marks the point of attachment. 6FAM = O=C1OC2(c3ccc(O)cc3Oc3cc(O)ccc32)c2cc(C(=O)*)ccc21; Cbz = O=C(OCc1ccccc1)*; CH2F = FC*

For experiment [1], the target named is T1, BIR3 domain (residues 241-356) of human XIAP (Homo sapiens, UniProt P98170).
T1 construct: the BIR3 domain (residues 241-356) of human XIAP fused to His-tag; His-tag
Put plainly: XIAP binding assay, FP-based (Smac-Flu tracer). The conditions noted are these: Table 5. Here is the method: An established sensitive and quantitative in vitro fluorescence polarization-based (FP) binding assay for testing of the binding affinity of each new small molecule inhibitor of XIAP is used. […] The competing inhibitor is then added in microtiter wells. If the inhibitor does compete with Smac-Flu to bind to XIAP, it displaces the Smac-Flu peptide from the complex and cause a reduction in the polarization value. […] The change in the polarization value is used to determine the relative affinity of the inhibitor for XIAP. The XIAP used in this assay is the BIR3 domain (residues 241-356) of human XIAP fused to His-tag.
The FP assays were performed as follows: each 96-well contains 50 nM Smac-Flu peptide, 985 nM XIAP protein and 5 ul tested compounds in a final volume of 20 ul. Tested compounds were serially diluted in triplicate in concentration from 0 to 100 uM. For each assay negative controls containing XIAP and Smac-Flu (equivalent to 0% inhibition) and positive controls containing only free Smac-Flu peptide (equivalent to 100% inhibition) were included on each assay plate. The polarization values were measured after 3 hour incubation when the binding reached equilibrium. IC50 values were determined from the plot using nonlinear least-squares analysis. Curve fitting was performed using […] PRISM software. The Kis of competing compounds were derived from the measured IC50 and the Kd of Smac-Flu in the competition assays, using the Cheng-Prusoff equation. The fluorescence intensity of each tested inhibitor is closely monitored to exclude any false positives. Furthermore, compounds with high fluorescence intensity are tested using the NMR methods described below.

Experiment [2] has as its target T2, human XIAP BIR3 protein (residues 241-356) (Homo sapiens, UniProt P98170).
T2 construct: The human XIAP BIR3 protein (residues 241-356) with a His tag; His tag
The experiment can be described thus: FP direct binding of fluorescent labeled Smac peptides to XIAP BIR3 (Kd titration).

Experiment [3] deals with XIAP BIR3 protein of human XIAP (residues 241-356) (Homo sapiens, UniProt P98170). The experiment can be described thus: biochemical.
In the next experiment the test system is Jurkat-Vec cells. Put plainly: Cell growth assay, Jurkat-Vec. The experiment is classed as cell-based. The conditions noted are these: 2.5 μM, 72 hours. As for the experimental part:
(§1) FIG. 9 presents inhibition of cell growth by embelin in Jurkat-Vec and Jurkat-XIAP cells. The cell growth results are expressed as the percent of control and calculated from the percent of absorbance of treated wells versus that of vehicle control.
(§2) Human prostate cancer cell lines (PC-3, LNCap, CL-1, DU-145), and normal human fibroblast cell line WI-38 were obtained from the American Type Culture Collection (ATCC), were grown and maintained in Dulbecco's modified Eagle's medium (DMEM) containing 10% FBS (Invitrogen Corporation). Normal human prostate epithelial cells (PrEC) were obtained from Clonetics (Cambrex Inc., MD) and maintained in the special medium provided by the company. Jurkat T-cells stably transfected with either empty vector (Jurkat-Vec), or XIAP (Jurkat-XIAP) and were cultured in RPMI 1640 containing 10% fetal calf serum and 1 ug/ml puromycin. Cell cultures were maintained in a humidified incubator at 37° C. and 5% CO2.
Cell growth was determined by the MTT-based assay using Cell Proliferation Reagent WST-1 (Roche) according to the manufacturer's instruction. […] Absorbance was measured with a plate reader at […] with correction at […]. The results are expressed as the percent of absorbance of treated wells versus that of vehicle control.

The subject of a further experiment is Jurkat-XIAP cells. The experiment can be described thus: Cell growth assay, Jurkat-XIAP. The format is cell-based. As for the experimental part:
as §1, §2
Cell growth was determined by the MTT-based assay using Cell Proliferation Reagent WST-1 (Roche) according to the manufacturer's instruction. The WST-1 assay is a colorimetric assay that measures the reduction of WST-1 by mitochondrial succinate dehydrogenase, which belongs to the respiratory chain of the mitochondria and is active only in viable cells. The WST-1 enters the cells and passes into the mitochondria, where it is reduced to a soluble, colored formazan product. The amount of formazan dye formed directly correlates to the number of metabolically active cells in the culture. Cells (5000 cells/well) were grown in medium with 10% FBS, and various concentrations of drugs were added to the cells in triplicate. […] Absorbance was measured with a plate reader at […] with correction at […]. The results are expressed as the percent of absorbance of treated wells versus that of vehicle control.

Another experiment deals with caspase-9 in PC-3 cells. The experiment can be described thus: Activation of caspase-9 assay, PC-3. The conditions noted are these: for blocking of active caspase-9 staining in Annexin V-FITC positive cells by pre-incubation: embelin-treated PC-3 cells pre-incubated with excessive inhibitor (20 μM LEHD-FMK, 5 min) before staining. The experiment is classed as cell-based, human. Here is the method: FIGS. 7A and 7B show the activation of caspase-9 by embelin in PC-3 prostate cancer cells and its selectivity in normal prostate epithelial cells. 1×10^6 PC-3 or PrEC cells per well in 6-well culture plates were treated with embelin for 48 hours. […] The cells were collected and stained of active caspase-9 by CaspGLOW Red Active Caspase-9 Staining Kit, and analyzed by flow cytometry in PI channel.
1×10^6 PC-3 cells per well in 6-well culture plates, were treated with various concentrations of embelin, or the same amount of solvent DMSO as vehicle control, for up to 48 hr. […] The cells were collected for staining of active caspase-9 by CaspGLOW Red Active Caspase-9 Staining Kit (BioVision, Inc., Mountain View, Calif.) according to the manufacturer's instructions, with modification. Briefly, to each tube containing 1×10^6 treated or control cells in 0.3 ml complete culture medium was added 1 μl of Red-LEHD-FMK and incubated for 0.5 hr at 37° C. incubator with 5% CO2. For double staining with Annexin V-FITC, the cells were spun down and resuspended in 100 μl Binding Buffer containing 1× Annexin V-FITC from the Annexin-V-FLUOS Kit (Roche) and incubated at room temperature for 10 min. The cells were then washed two times with Wash Buffer from the Active Caspase-9 Staining Kit. The cells were resuspended in 0.3 ml Binding Buffer and analyzed by flow cytometry, using PI channel for active caspase-9 and FITC channel for apoptosis.
The active caspase-9 and Annexin V double stained cells were also observed under Zeiss Laser Scanning Confocal Microscope LSM 510 Meta, using the fluorescent filter sets for rhodamine (Red) and FITC (green) channels. Early apoptotic cells show green fluorescence on the cell membrane while caspase-9 positive cells show bright red staining in the cytoplasm. Photos were taken at original magnification of 630×.

T1 sequence (P98170 241-356): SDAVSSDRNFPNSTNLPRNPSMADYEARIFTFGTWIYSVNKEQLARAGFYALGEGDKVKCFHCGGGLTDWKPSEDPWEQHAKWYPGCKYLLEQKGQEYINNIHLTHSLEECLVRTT
T2 sequence (P98170 241-356): as above
XIAP BIR3 protein of human XIAP (residues 241-356), sequence (P98170 241-356): as above

The IC50 is the concentration that inhibits the measured activity by half. Lower therefore signals higher potency. `CCCCc1cccc(CCC2=C(O)C(=O)C=C(O)C2=O)c1` [EW-4] showed a half-maximal inhibitory concentration (IC50) in experiment [1] of 27.6 ± 2.76 µM.
Same read-out and setting: for `O=C1C(O)=C(CCc2cccc(CCc3ccccc3)c2)C(=O)C(O)=C1CCc1ccccc1` [EW-6] the value was 14.3 ± 2.41 µM.
For `C[C@H](N)C(=O)N[C@@H](CCCNC(=N)N)C(=O)N1CCC[C@H]1C(=O)N[C@@H](Cc1ccccc1)C(=O)N[C@@H](C)C(=O)N[C@@H](CCC(N)=O)C(=O)N[C@@H](CCCCNC(=O)c1ccc2c(c1)C1(OC2=O)c2ccc(O)cc2Oc2cc(O)ccc21)C(=O)O` [SM7F, ARPFAQK-FAM] (H-ARPFAQK(6FAM)-OH; N-terminus and C-terminus assumed), in experiment [2], the “binding affinity compared with S9F” value is recorded as “higher binding affinity than S9F”; the “ratio of the Kd values between labeled SM7F and S9F” value was 7.3 times.
On to `O=C1C=C(O)C(=O)C(CCc2ccccc2)=C1O` [CJ-331], for which the IC50 in experiment [1] came out at 89.1 ± 11.3 µM.
For the compound ARPFAQK [SM7], the IC50 in experiment [3] was 0.57 ± 0.11 µM.
Turning to `O=C1C=C(O)C(=O)C(CCCCc2ccccc2)=C1` [EW-3], in experiment [1], the IC50 was found to be 353 ± 79.4 µM.
Same read-out and setting: to `Cc1cccc(NC(=O)c2cccc(CCC3=C(O)C(=O)C=C(O)C3=O)c2)c1` [CJ-322] belongs 4.89 ± 0.75 µM; to `CC(C)c1ccc(CCc2cccc(CCC3=C(O)C(=O)C=C(O)C3=O)c2)cc1` [CJ-294], 3.76 ± 0.25 µM.
The same measure, in the same setting: for `Cc1ccc(CNC(=O)c2cccc(CCC3=C(O)C(=O)C=C(O)C3=O)c2)cc1` [CJ-315] the value was 5.27 ± 1.43 µM; for `CC(C)CCCCCC1=CC(=O)C=C(O)C1=O` [EW-2], 61.4 ± 9.29 µM; for `Cc1ccc(NC(=O)c2cccc(CCC3=C(O)C(=O)C=C(O)C3=O)c2)cc1` [CJ-305], 1.62 ± 0.28 µM.
As to `CC(C)c1ccc(CCc2cccc(CCC3=C(O)C(=O)C=C(O)C3=O)c2)cc1` [CJ-301], in experiment [1], the IC50 came to 3.42 ± 0.31 µM.
The same measure, in the same setting: to `O=C1C=C(O)C(=O)C(CCc2cccc(CCc3cccc(Cl)c3)c2)=C1O` [EW-7] belongs 9.18 ± 1.9 µM.
With `COc1cc([C@@H]2c3cc4c(cc3[C@@H](O[C@@H]3O[C@@H]5CO[C@@H](C)O[C@H]5[C@H](O)[C@H]3O)[C@H]3COC(=O)[C@H]23)OCO4)cc(OC)c1O` [etoposide], the “cells killed in cell growth assay” value with Jurkat-Vec cells is 94.3%±0.6%; with Jurkat-XIAP cells (2.5 μM, 72 hours) it was 59%±2%; in the experiment on Jurkat-XIAP cells (10 μM) it was 85%±0.1%.
In experiment [1], `O=C1C=C(O)C(=O)C(CCc2cccc(CCc3ccc(Cl)cc3)c2)=C1O` [EW-8] showed an IC50 of 8.05 ± 1.48 µM.
Same read-out and setting: to `O=C1C=C(O)C(=O)C(CCc2cccc(C(=O)Nc3ccc(Cl)c(Cl)c3)c2)=C1O` [CJ-327] belongs 12.3 ± 1.09 µM.
With ZDEVD-FMK [reference compound], the “blocking of active caspase-9 staining in Annexin V-FITC positive cells by pre-incubation” value with caspase-9 in PC-3 cells is given as “did not”.
Compound `Cc1ccccc1NC(=O)c1cccc(CCC2=C(O)C(=O)C=C(O)C2=O)c1` [CJ-323] came in with an IC50 in experiment [1] of 11.6 ± 0.96 µM.
For `Cc1ccc(CCc2cccc(CCC3=C(O)C(=O)C=C(O)C3=O)c2)cc1` [CJ-274], the IC50 in experiment [1] is 2.14 ± 0.73 µM.
With “Cbz-Val-Ala-Asp-CH2F [ZVAD peptide, reference compound]”, the “blocking of Annexin V-FITC and active caspase-9 double staining” value in the experiment with caspase-9 in PC-3 cells (PC-3 cells, 40 μM embelin, 48 hrs) was “blocked”. Also, the “inhibition of embelin-induced activation of caspase-9” value with caspase-9 in PC-3 cells (pan-caspase inhibitor added 5 min before embelin) is reported as “effectively inhibited”.
`CCC1=C(O)C(=O)C=C(O)C1=O` [EW-9] yielded an IC50 in experiment [1] of 475 ± 122 µM.
Take LEHD-FMK [reference compound]: the “blocking of active caspase-9 staining in Annexin V-FITC positive cells by pre-incubation” value in the experiment on caspase-9 in PC-3 cells is recorded as “blocked”.
